Several values for one entry are separate records, joined by “and”; a condition that tells them apart may be missing. Identical values can stand only once. Inconclusive results and toxic doses are left out.
System: L1210 leukemia ip in BDF1 mice, survival T/C
Experiment: NCI In Vivo Anticancer Drug Screen. Data for tumor model L1210 Leukemia (intraperitoneal) in B6D2F1 (BDF1) mice
Settings: endpoint: mean survival time, higher = longer survival
Outline: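 Survival endpoint. Drug-treated group vs vehicle group, expressed as T divided by C. Tumor passaged by transplantation.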

[1] = dose: 100.0 mg/kg/injection, schedule: Q01DX009 (ip), vehicle: saline with Tween-80
[2] = dose: 100.0 mg/kg/injection, schedule: Q04DX003 (ip), vehicle: saline with Tween-80
[3] = dose: 200.0 mg/kg/injection, schedule: Q04DX003 (ip), vehicle: saline with Tween-80
[4] = dose: 5.0 mg/kg/injection, schedule: Q01DX001 (ip), vehicle: saline
[5] = dose: 10.0 mg/kg/injection, schedule: Q01DX001 (ip), vehicle: saline
[6] = dose: 20.0 mg/kg/injection, schedule: Q01DX001 (ip), vehicle: saline
[7] = dose: 100.0 mg/kg/injection, schedule: Q01DX001 (ip), vehicle: saline
[8] = dose: 100.0 mg/kg/injection, schedule: Q04DX003 (ip), vehicle: saline
[9] = dose: 200.0 mg/kg/injection, schedule: Q04DX003 (ip), vehicle: saline

Compound: Cc1ccc(C)c(CCO)c1
- T/C [1]: 100 % of control
- T/C [2]: 97 % of control
- T/C (dose: 200.0 mg/kg/injection, schedule: Q01DX009 (ip), vehicle: saline with Tween-80): 95 % of control
- T/C [3]: 108 % of control
- T/C (dose: 400.0 mg/kg/injection, schedule: Q01DX009 (ip), vehicle: saline with Tween-80): 91 % of control

Compound: O=C1OC(=O)c2cccc3cccc1c23
- T/C (dose: 50.0 mg/kg/injection, schedule: Q01DX001 (ip), vehicle: Klucel (hydroxypropylcellulose) (HPC)): 98 % of control
- T/C (dose: 100.0 mg/kg/injection, schedule: Q01DX001 (ip), vehicle: Klucel (hydroxypropylcellulose) (HPC)): 97 % of control
- T/C (dose: 200.0 mg/kg/injection, schedule: Q01DX001 (ip), vehicle: Klucel (hydroxypropylcellulose) (HPC)): 94 % of control
- T/C (dose: 400.0 mg/kg/injection, schedule: Q01DX001 (ip), vehicle: Klucel (hydroxypropylcellulose) (HPC)): 111 % of control

Compound: NC(Cc1ccc(Cl)cc1)C(=O)O (stereo not drawn)
- T/C (dose: 50.0 mg/kg/injection, schedule: Q01DX001 (ip), vehicle: water): 95 % of control
- T/C (dose: 100.0 mg/kg/injection, schedule: Q01DX001 (ip), vehicle: water): 98 % of control
- T/C (dose: 200.0 mg/kg/injection, schedule: Q01DX001 (ip), vehicle: water): 93 % of control
- T/C (dose: 400.0 mg/kg/injection, schedule: Q01DX001 (ip), vehicle: water): 93 % of control
- T/C (dose: 800.0 mg/kg/injection, schedule: Q01DX001 (ip), vehicle: water): 90 % of control
- T/C (dose: 1200.0 mg/kg/injection, schedule: Q01DX001 (ip), vehicle: water): 96 % of control
- T/C (dose: 1600.0 mg/kg/injection, schedule: Q01DX001 (ip), vehicle: water): 96 % of control
- T/C (dose: 2000.0 mg/kg/injection, schedule: Q01DX001 (ip), vehicle: water): 93 % of control

Compound: CCCCCCCCCCCCCC(=O)O (tested in a mixture with another compound)
- T/C [4]: 101 % of control
- T/C [5]: 95 % of control
- T/C [6]: 102 % of control
- T/C (dose: 40.0 mg/kg/injection, schedule: Q01DX001 (ip), vehicle: saline): 102 % of control
- T/C (dose: 80.0 mg/kg/injection, schedule: Q01DX001 (ip), vehicle: saline): 90 % of control
- T/C [7]: 98 % of control

Compound: O=C(O)CCC(=O)c1ccc(C2CCCC2)c2ccccc12
- T/C (dose: 100.0 mg/kg/injection, schedule: Q01DX001 (ip), vehicle: carboxymethylcellulose (CMC)): 91 % of control
- T/C (dose: 200.0 mg/kg/injection, schedule: Q01DX001 (ip), vehicle: carboxymethylcellulose (CMC)): 93 % of control
- T/C (dose: 400.0 mg/kg/injection, schedule: Q01DX001 (ip), vehicle: carboxymethylcellulose (CMC)): 89 % of control

Compound: Nc1cc(SC(c2ccccc2)c2ccccc2)c([N+](=O)[O-])c(N)n1
- T/C (dose: 100.0 mg/kg/injection, schedule: Q01DX001 (ip), vehicle: saline with Tween-80): 92 % of control
- T/C (dose: 200.0 mg/kg/injection, schedule: Q01DX001 (ip), vehicle: saline with Tween-80): 101 % of control
- T/C (dose: 400.0 mg/kg/injection, schedule: Q01DX001 (ip), vehicle: saline with Tween-80): 95 % of control

Compound: Cc1ccc(C(=O)N(N)C2CCCCC2)cc1
- T/C [2]: 95 % of control
- T/C [3]: 93 % of control
- T/C (dose: 400.0 mg/kg/injection, schedule: Q04DX003 (ip), vehicle: saline with Tween-80): 96 % of control

Compound: Ic1ccc(/C=N/Nc2nnc(N/N=C/c3ccc(I)cc3)c3ccccc23)cc1
- T/C (dose: 50.0 mg/kg/injection, schedule: Q01DX001 (ip), vehicle: saline): 98 % of control
- T/C [7]: 96 % of control
- T/C (dose: 200.0 mg/kg/injection, schedule: Q01DX001 (ip), vehicle: saline): 98 % of control
- T/C (dose: 400.0 mg/kg/injection, schedule: Q01DX001 (ip), vehicle: saline): 98 % of control

Compound: CC(=O)NC1=C(N2CC2C)C(=O)C(NC(C)=O)=C(N2CC2C)C1=O (stereo not drawn)
- T/C (dose: 0.25 mg/kg/injection, schedule: Q01DX009 (ip), vehicle: saline): 109 % of control
- T/C (dose: 0.31 mg/kg/injection, schedule: Q01DX Z (ip), vehicle: saline): 103 % of control
- T/C (dose: 0.5 mg/kg/injection, schedule: Q01DX009 (ip), vehicle: saline): 103 % of control
- T/C (dose: 0.63 mg/kg/injection, schedule: Q01DX Z (ip), vehicle: saline): 103 % of control
- T/C (dose: 1.0 mg/kg/injection, schedule: Q01DX009 (ip), vehicle: saline): 114 % of control
- T/C (dose: 1.25 mg/kg/injection, schedule: Q01DX Z (ip), vehicle: saline): 106 % of control
- T/C (dose: 2.0 mg/kg/injection, schedule: Q01DX009 (ip), vehicle: saline): 120 % of control
- T/C (dose: 2.5 mg/kg/injection, schedule: Q01DX009 (ip), vehicle: saline): 184 % of control
- T/C [4]: 118 % of control
- T/C (dose: 5.0 mg/kg/injection, schedule: Q01DX009 (ip), vehicle: saline): 108 % of control
- T/C [5]: 171 % of control
- T/C (dose: 10.0 mg/kg/injection, schedule: Q01DX Z (ip), vehicle: saline): 96 % of control and 111 % of control
- T/C [6]: 118 % of control
- T/C (dose: 20.0 mg/kg/injection, schedule: Q01DX009 (ip), vehicle: saline): 111 % of control
- T/C (dose: 20.0 mg/kg/injection, schedule: Q01DX Z (ip), vehicle: saline): 103 % of control
- T/C (dose: 40.0 mg/kg/injection, schedule: Q01DX Z (ip), vehicle: saline): 178 % of control
- T/C (dose: 50.0 mg/kg/injection, schedule: Q01DX009 (ip), vehicle: saline): 100 % of control
- T/C (dose: 75.0 mg/kg/injection, schedule: Q01DX001 (ip), vehicle: saline): 186 % of control
- T/C (dose: 75.0 mg/kg/injection, schedule: Q01DX009 (ip), vehicle: saline): 92 % of control
- T/C (dose: 150.0 mg/kg/injection, schedule: Q01DX001 (ip), vehicle: saline): 112 % of control

Compound: CC(=O)Oc1c(I)cc(I)cc1C(=O)Nc1ccc(Cl)cc1
- T/C (dose: 50.0 mg/kg/injection, schedule: Q01DX009 (ip), vehicle: saline with Tween-80): 94 % of control
- T/C [1]: 87 % of control

Compound: Cc1cc(C)c(/C=N/O)c(C)c1
- T/C (dose: 50.0 mg/kg/injection, schedule: Q01DX009 (ip), vehicle: acetone): 93 % of control
- T/C (dose: 100.0 mg/kg/injection, schedule: Q01DX009 (ip), vehicle: acetone): 87 % of control
- T/C [8]: 102 % of control
- T/C [9]: 97 % of control
- T/C (dose: 400.0 mg/kg/injection, schedule: Q04DX003 (ip), vehicle: saline): 100 % of control

Compound: Cc1cc(O)c2c(c1O)C(=O)C13C(=C2O)C(=O)C2C(O)C1C1C(O)C3C(=O)C3=C(O)c4c(O)cc(C)c(O)c4C(=O)C321 (stereo not drawn)
- T/C (dose: 12.5 mg/kg/injection, schedule: Q04DX003 (ip), vehicle: saline with Tween-80): 93 % of control
- T/C (dose: 25.0 mg/kg/injection, schedule: Q04DX003 (ip), vehicle: saline with Tween-80): 106 % of control

Compound: COc1ccc(C(c2ccc(OC)cc2)c2cccc([N+](=O)[O-])c2)cc1
- T/C [2]: 97 % of control
- T/C [3]: 92 % of control

Compound: N/C(=N\OC(=O)Nc1ccc(Cl)cc1)C(Cl)(Cl)Cl
- T/C (dose: 100.0 mg/kg/injection, schedule: Q01DX009 (ip), vehicle: Klucel (hydroxypropylcellulose) (HPC)): 94 % of control
- T/C (dose: 200.0 mg/kg/injection, schedule: Q01DX009 (ip), vehicle: Klucel (hydroxypropylcellulose) (HPC)): 90 % of control

Compound: CCCN(CCC)CC(C)=O
- T/C (dose: 100.0 mg/kg/injection, schedule: Q01DX009 (ip), vehicle: saline): 98 % of control
- T/C [8]: 107 % of control
- T/C (dose: 200.0 mg/kg/injection, schedule: Q01DX009 (ip), vehicle: saline): 101 % of control
- T/C [9]: 109 % of control

Compound: CC(=O)OCC1OC(N2C(=O)/C(=C(/C)c3ccco3)SC2=S)C(OC(C)=O)C(OC(C)=O)C1OC(C)=O (stereo not drawn)
- T/C (dose: 25.0 mg/kg/injection, schedule: Q01DX005 (ip), vehicle: other): 103 % of control
- T/C (dose: 50.0 mg/kg/injection, schedule: Q01DX005 (ip), vehicle: other): 98 % of control
- T/C (dose: 100.0 mg/kg/injection, schedule: Q01DX005 (ip), vehicle: other): 98 % of control
- T/C (dose: 200.0 mg/kg/injection, schedule: Q01DX005 (ip), vehicle: other): 98 % of control
- T/C (dose: 400.0 mg/kg/injection, schedule: Q01DX005 (ip), vehicle: other): 101 % of control

Source: PubChem BioAssay AID248 (DTP/NCI, 2004)
